Consider one compound from ChEMBL document CHEMBL5725324, “Amide compounds for treatment of complement mediated disorders” (2017).

The target of the experiment is Complement factor D (Homo sapiens, UniProt P00746). Nature of the experiment: Human Factor D Assay: Human factor D (purified from human serum, Complement Technology, Inc.) at 80 nM final concentration is incubated with test compound at various concentrations for 5 minutes at room temperature in 50 mM Tris, 1M NaCl, pH 7.5. A synthetic substrate Z-L-Lys-SBzl and DTNB (Ellman's reagent) are added to final concentrations of 100 μM each. The increase in color is recorded at OD405 nm in a microplate in kinetic mode over 30 minutes with 30 second time points in a […]. IC50 values are calculated by non-linear regression from the percentage of inhibition of complement factor D activity as a function of test compound concentration.

Molecules are shown by their SMILES.

Chain of Complement factor D (P00746 whole entry): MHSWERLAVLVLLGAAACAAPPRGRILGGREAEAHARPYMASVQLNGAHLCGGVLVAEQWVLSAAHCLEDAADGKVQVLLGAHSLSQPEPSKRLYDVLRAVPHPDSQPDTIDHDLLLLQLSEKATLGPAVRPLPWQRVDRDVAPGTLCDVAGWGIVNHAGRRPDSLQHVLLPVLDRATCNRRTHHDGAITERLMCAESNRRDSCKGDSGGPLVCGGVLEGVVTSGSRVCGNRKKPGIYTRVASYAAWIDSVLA

As for `CC(=O)c1cn(CC(=O)N2[C@@H]3C[C@@H]3C[C@H]2C(=O)NCc2cccc(Cl)c2F)c2ccc(NC(=O)N3CCCC3)cc12`, the half-maximal inhibitory concentration (IC50) was under 1000 nM.

What is called IC50 is the point on the concentration scale where inhibition reaches its midpoint.
